Measured values as given in patent US20070298997A1, “Compounds useful in treating diabetic microvascular complications and age-related macular degeneration” (priority 2003, published 2007).

Legend:
[1] = system: Retinal capillary endothelial cells (RCEC); experiment: Quantification of viable cells by MTT assay, RCEC; type: cell-based, bovine; details: 5 μM, 48 h
Experimental: FIG. 2 illustrates the specific inhibition of endothelial cell proliferation by recombinant kallistatin. RCEC were treated with recombinant kallistatin at concentrations of 5,10, 20, 40, 80 and 160 nM for 72 h. Viable cells were quantified by MTT assay. […] This effect appeared to be kallistatin concentration-dependent, with an apparent IC50 of 50 nM (FIG. 2) which is similar to that of K5, a known angiogenic inhibitor (Zhang et al., 2001).
FIG. 7 illustrates the effects of B1 and B2 kinin receptor antagonists on RCEC. In order to test whether the anti-angiogenic activity of kallistatin is via reducing kinin production by inhibiting kallikrein activity, RCEC were treated with 5 μM des-Arg^9-[Leu^8]-bradykinin, a specific antagonist of the B1 kinin receptor or Hoe-140, a specific B2 kinin receptor antagonist, in the presence or absence of 40 nM kallistatin for 48 h, and viable cells were quantified by MTT assay.
Quantification of viable cells: Cells were plated in 12-well plates in triplicate and cultured in the growth medium until they reached 60-70% of confluency. The culture medium was replaced with a medium containing 1% fetal bovine serum (FBS). Recombinant kallistatin was added to the cover medium to various concentrations and incubated with the cells for 72 h. The viable cells were quantified by the MTT (3-[4,5-dimethylthiazol-2-yl]-2,5-dephenyl tetrazolium bromid, Roche, Mannheim, Germany) assay following a protocol recommended by the manufacturer. The effect of kallistatin on viable cell number was analyzed using Student's t test.

[2] = system: B1 receptor; details: at 1 mM; cited from earlier work

Row | Substance | inhibition of RCEC (viable cells) ([1]; P>0.05) | block of bradykinin-induced endothelial cell proliferation [2] | viable cells, % of the control ([1]; P<0.05)
1 | Hoe-140 [reference compound] | no significant inhibition |  | 
2 | des-Arg^9-[Leu^8]-bradykinin [reference compound] |  | completely block bradykinin-induced endothelial cell proliferation | 85 % of the control
